The values that follow are results of earlier work, collected in patent publication EP1379546B1, “PEPTIDE FOR THE DIAGNOSIS AND THERAPY OF ALZHEIMER'S DISEASE” (Leibniz-Institut für Altersforschung - …, priority 2001, dated 2002).

In this data set the target is Aβ (Homo sapiens, UniProt P05067). The following applies: inhibition of Aβ fibril formation and anticytotoxic effect, reported in Tomiyama et al., J. Biol. Chem. 1996.
Chain of Aβ (P05067 672-711 limits assumed): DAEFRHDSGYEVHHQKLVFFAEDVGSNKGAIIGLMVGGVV

For `CCCCCCCCCCCCCCCC[N+]1(C)CCCCC1.[Br-]` [Hexadecyl-N-methylpiperidiniumbromid], the Dissoziationskonstante result is listed as “µM- bis mM-Bereich”.

As to `CO[C@H]1/C=C/O[C@@]2(C)Oc3c(C)c(O)c4c(O)c(c(/C=N/N5CCN(C)CC5)c(O)c4c3C2=O)NC(=O)/C(C)=C\C=C\[C@H](C)[C@H](O)[C@@H](C)[C@@H](O)[C@@H](C)[C@H](OC(C)=O)[C@@H]1C` [Rifampicin], the Dissoziationskonstante entry is “µM- bis mM-Bereich”.
